Where “and” joins values, the source holds several entries; their conditions need not be identical. Identical values can stand only once. Calls of active or inactive are those of the source. No cut-off for these calls is given here.
How the values were obtained:
[1] = molecular target: Mitogen-activated protein kinase kinase kinase kinase 2 (Homo sapiens) (UniProt Q12851); experiment: Inhibition of human MAP4K2 assessed as percent of control at 2000 nM by KINOMEscan assay relative to control; set-up: scale not given: the % may be the effect or the level left
[2] = molecular target: Serine/threonine-protein kinase D1 (Homo sapiens) (UniProt Q15139); experiment: Inhibition of human PRKD1 assessed as percent of control at 2000 nM by KINOMEscan assay relative to control; set-up: scale not given: the % may be the effect or the level left
Chain of Serine/threonine-protein kinase D1 (Homo sapiens) (Q15139 whole entry): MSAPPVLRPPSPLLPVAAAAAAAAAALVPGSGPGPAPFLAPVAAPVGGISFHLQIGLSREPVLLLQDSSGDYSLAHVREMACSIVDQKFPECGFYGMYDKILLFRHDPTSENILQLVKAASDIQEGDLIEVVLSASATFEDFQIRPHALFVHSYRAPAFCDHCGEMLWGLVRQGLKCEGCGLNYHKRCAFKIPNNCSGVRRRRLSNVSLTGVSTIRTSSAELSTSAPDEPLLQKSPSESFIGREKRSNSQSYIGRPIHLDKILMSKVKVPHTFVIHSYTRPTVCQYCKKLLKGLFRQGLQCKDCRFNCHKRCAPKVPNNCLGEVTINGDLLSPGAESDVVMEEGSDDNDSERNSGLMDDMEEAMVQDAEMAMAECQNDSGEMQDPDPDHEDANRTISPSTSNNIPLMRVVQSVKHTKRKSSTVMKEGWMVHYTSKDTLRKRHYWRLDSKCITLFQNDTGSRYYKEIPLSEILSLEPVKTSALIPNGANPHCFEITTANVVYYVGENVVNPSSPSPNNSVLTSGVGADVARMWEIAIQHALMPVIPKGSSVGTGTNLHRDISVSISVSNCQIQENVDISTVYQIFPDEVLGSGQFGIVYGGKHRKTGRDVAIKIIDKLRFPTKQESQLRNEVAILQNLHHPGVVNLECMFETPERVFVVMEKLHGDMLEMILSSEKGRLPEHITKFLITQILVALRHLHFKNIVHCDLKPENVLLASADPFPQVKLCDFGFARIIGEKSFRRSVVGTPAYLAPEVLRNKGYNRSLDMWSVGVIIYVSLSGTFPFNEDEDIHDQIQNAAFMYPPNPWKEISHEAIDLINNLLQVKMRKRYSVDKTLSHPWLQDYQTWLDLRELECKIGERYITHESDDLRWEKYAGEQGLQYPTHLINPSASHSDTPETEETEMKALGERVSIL

[3] = molecular target: Protein kinase C eta type (Homo sapiens) (UniProt P24723); experiment: Inhibition of human PRKCH assessed as percent of control at 2000 nM by KINOMEscan assay relative to control; set-up: scale not given: the % may be the effect or the level left
[4] = molecular target: Interleukin-1 receptor-associated kinase 4 (Homo sapiens) (UniProt Q9NWZ3); experiment: Inhibition of human IRAK4 assessed as percent of control at 2000 nM by KINOMEscan assay relative to control; set-up: scale not given: the % may be the effect or the level left
CWR22R = experiment: Antitumor activity against human 22Rv1 cells expressing AR-V7 xenografted in male nude mouse assessed as suppression of tumor growth at 50 mg/kg, administered twice a day for 40 days; type: functional, organism-based
[5] = molecular target: Serine/threonine-protein kinase Nek2 (Homo sapiens) (UniProt P51955); experiment: Inhibition of human NEK2 assessed as percent of control at 2000 nM by KINOMEscan assay relative to control; set-up: scale not given: the % may be the effect or the level left
[6] = molecular target: Phosphatidylinositol 4-phosphate 5-kinase type-1 gamma (Homo sapiens) (UniProt O60331); experiment: Inhibition of human PIP5K1C assessed as percent of control at 2000 nM by KINOMEscan assay relative to control; set-up: scale not given: the % may be the effect or the level left
[7] = molecular target: Serine/threonine-protein kinase WNK1 (Homo sapiens) (UniProt Q9H4A3); experiment: Inhibition of human WNK1 assessed as percent of control at 2000 nM by KINOMEscan assay relative to control; set-up: scale not given: the % may be the effect or the level left
[8] = molecular target: Serine/threonine-protein kinase PLK4 (Homo sapiens) (UniProt O00444); experiment: Inhibition of human PLK4 assessed as percent of control at 2000 nM by KINOMEscan assay relative to control; set-up: scale not given: the % may be the effect or the level left
[9] = molecular target: Proto-oncogene tyrosine-protein kinase receptor Ret (Homo sapiens) (UniProt P07949); experiment: Inhibition of human RET assessed as percent of control at 2000 nM by KINOMEscan assay relative to control; set-up: scale not given: the % may be the effect or the level left
[10] = molecular target: Tyrosine-protein kinase FRK (Homo sapiens) (UniProt P42685); experiment: Inhibition of human FRK assessed as percent of control at 2000 nM by KINOMEscan assay relative to control; set-up: scale not given: the % may be the effect or the level left
[11] = molecular target: Serine/threonine-protein kinase pim-2 (Homo sapiens) (UniProt Q9P1W9); experiment: Inhibition of human PIM2 assessed as percent of control at 2000 nM by KINOMEscan assay relative to control; set-up: scale not given: the % may be the effect or the level left
Chain of Serine/threonine-protein kinase pim-2 (Homo sapiens) (Q9P1W9 whole entry, looked up): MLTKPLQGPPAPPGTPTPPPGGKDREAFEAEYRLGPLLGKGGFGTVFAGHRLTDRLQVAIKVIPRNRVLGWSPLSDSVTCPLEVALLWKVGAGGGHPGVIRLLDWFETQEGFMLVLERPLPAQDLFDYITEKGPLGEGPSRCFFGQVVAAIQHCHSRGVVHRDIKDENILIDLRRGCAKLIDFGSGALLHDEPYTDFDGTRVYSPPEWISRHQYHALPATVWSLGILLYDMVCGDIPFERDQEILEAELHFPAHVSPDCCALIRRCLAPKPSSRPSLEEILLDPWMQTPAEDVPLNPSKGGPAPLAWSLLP

[12] = molecular target: Serine/threonine-protein kinase LATS1 (Homo sapiens) (UniProt O95835); experiment: Inhibition of human LATS1 assessed as percent of control at 2000 nM by KINOMEscan assay relative to control; set-up: scale not given: the % may be the effect or the level left
[13] = molecular target: Tyrosine-protein kinase SYK (Homo sapiens) (UniProt P43405); experiment: Inhibition of human SYK assessed as percent of control at 2000 nM by KINOMEscan assay relative to control; set-up: scale not given: the % may be the effect or the level left
[14] = molecular target: RAC-beta serine/threonine-protein kinase (Homo sapiens) (UniProt P31751); experiment: Inhibition of human AKT2 assessed as percent of control at 2000 nM by KINOMEscan assay relative to control; set-up: scale not given: the % may be the effect or the level left
[15] = molecular target: Serine/threonine-protein kinase TAO2 (Homo sapiens) (UniProt Q9UL54); experiment: Inhibition of human TAOK2 assessed as percent of control at 2000 nM by KINOMEscan assay relative to control; set-up: scale not given: the % may be the effect or the level left
[16] = molecular target: Serine/threonine-protein kinase Nek3 (Homo sapiens) (UniProt P51956); experiment: Inhibition of human NEK3 assessed as percent of control at 2000 nM by KINOMEscan assay relative to control; set-up: scale not given: the % may be the effect or the level left
[17] = molecular target: Proto-oncogene tyrosine-protein kinase ROS (Homo sapiens) (UniProt P08922); experiment: Inhibition of human ROS1 assessed as percent of control at 2000 nM by KINOMEscan assay relative to control; set-up: scale not given: the % may be the effect or the level left
Chain of Proto-oncogene tyrosine-protein kinase ROS (Homo sapiens) (P08922 whole entry): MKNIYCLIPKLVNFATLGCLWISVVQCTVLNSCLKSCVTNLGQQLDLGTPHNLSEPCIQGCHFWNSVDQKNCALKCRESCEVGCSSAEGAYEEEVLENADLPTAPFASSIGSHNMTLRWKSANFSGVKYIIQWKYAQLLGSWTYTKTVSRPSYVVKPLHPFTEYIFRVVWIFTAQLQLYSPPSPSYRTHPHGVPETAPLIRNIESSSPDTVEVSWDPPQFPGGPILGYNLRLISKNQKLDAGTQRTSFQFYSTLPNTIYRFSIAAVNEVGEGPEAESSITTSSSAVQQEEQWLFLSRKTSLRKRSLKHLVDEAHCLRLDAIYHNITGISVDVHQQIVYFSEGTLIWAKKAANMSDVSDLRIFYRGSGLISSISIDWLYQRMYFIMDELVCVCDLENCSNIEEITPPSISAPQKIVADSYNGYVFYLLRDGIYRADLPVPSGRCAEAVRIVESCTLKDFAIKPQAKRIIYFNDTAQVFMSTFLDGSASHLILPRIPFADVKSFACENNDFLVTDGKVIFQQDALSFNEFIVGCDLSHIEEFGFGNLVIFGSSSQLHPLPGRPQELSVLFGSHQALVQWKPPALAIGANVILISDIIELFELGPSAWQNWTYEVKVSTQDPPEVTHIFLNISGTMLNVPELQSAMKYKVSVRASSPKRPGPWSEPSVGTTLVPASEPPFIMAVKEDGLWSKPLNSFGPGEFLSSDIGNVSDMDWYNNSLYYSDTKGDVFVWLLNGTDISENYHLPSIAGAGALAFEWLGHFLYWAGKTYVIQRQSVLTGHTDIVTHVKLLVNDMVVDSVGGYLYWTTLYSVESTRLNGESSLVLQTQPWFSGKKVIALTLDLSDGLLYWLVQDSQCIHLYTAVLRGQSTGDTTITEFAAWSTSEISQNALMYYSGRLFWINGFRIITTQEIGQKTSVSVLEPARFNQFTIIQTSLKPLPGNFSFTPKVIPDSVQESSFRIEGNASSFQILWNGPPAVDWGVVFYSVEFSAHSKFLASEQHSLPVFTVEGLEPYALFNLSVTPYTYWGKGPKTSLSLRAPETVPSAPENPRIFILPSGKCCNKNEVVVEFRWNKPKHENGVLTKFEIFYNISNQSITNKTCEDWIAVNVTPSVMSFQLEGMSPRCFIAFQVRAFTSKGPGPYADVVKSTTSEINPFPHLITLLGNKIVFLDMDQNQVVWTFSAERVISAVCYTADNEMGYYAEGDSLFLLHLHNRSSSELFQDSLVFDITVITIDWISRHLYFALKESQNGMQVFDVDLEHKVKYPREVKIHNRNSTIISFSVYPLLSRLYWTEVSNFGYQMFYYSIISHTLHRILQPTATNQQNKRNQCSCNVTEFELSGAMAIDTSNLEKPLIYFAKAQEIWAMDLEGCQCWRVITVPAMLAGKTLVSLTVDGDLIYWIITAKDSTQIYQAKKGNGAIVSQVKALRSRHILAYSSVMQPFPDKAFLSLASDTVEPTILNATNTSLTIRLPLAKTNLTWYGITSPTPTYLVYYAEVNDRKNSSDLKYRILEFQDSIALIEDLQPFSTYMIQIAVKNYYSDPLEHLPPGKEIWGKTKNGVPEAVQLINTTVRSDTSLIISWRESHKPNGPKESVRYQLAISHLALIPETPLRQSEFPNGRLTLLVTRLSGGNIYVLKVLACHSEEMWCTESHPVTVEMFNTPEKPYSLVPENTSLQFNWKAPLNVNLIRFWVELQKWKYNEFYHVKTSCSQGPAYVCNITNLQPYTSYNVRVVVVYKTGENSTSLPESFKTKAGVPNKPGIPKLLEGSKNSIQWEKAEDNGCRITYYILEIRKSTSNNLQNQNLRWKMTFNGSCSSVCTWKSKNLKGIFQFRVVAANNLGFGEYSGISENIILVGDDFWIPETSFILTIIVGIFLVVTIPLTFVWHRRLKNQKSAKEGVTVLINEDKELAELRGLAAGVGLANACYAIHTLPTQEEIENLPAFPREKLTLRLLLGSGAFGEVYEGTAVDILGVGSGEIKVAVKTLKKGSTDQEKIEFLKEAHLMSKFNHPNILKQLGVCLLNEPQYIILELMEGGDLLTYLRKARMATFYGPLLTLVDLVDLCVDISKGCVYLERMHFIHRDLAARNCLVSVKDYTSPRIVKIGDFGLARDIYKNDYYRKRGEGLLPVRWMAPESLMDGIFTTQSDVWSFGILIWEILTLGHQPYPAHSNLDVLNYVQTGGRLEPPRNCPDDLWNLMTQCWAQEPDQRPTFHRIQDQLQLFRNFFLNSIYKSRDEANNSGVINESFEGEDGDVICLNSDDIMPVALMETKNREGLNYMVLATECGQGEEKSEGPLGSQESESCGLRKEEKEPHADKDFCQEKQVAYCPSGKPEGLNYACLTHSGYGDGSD

[18] = molecular target: Citron Rho-interacting kinase (Homo sapiens) (UniProt O14578); experiment: Inhibition of human CIT assessed as percent of control at 2000 nM by KINOMEscan assay relative to control; set-up: scale not given: the % may be the effect or the level left
[19] = molecular target: Atypical kinase COQ8A, mitochondrial (Homo sapiens) (UniProt Q8NI60); experiment: Inhibition of human ADCK3 assessed as percent of control at 2000 nM by KINOMEscan assay relative to control; set-up: scale not given: the % may be the effect or the level left
[20] = molecular target: Mitogen-activated protein kinase kinase kinase 11 (Homo sapiens) (UniProt Q16584); experiment: Inhibition of human MLK3 assessed as percent of control at 2000 nM by KINOMEscan assay relative to control; set-up: scale not given: the % may be the effect or the level left
[21] = molecular target: Cyclin-dependent kinase 5 (Homo sapiens) (UniProt Q00535); experiment: Inhibition of human CDK5 assessed as percent of control at 2000 nM by KINOMEscan assay relative to control; set-up: scale not given: the % may be the effect or the level left
Chain of Cyclin-dependent kinase 5 (Homo sapiens) (Q00535 whole entry, looked up): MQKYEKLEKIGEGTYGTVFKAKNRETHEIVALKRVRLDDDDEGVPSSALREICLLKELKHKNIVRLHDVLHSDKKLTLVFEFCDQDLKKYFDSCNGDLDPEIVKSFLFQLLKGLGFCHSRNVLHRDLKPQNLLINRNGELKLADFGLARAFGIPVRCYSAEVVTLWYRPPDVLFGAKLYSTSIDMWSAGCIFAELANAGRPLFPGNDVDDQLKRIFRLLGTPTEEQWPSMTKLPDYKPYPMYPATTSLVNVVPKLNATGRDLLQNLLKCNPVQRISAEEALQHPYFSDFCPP

[22] = molecular target: Serine/threonine-protein kinase Nek4 (Homo sapiens) (UniProt P51957); experiment: Inhibition of human NEK4 assessed as percent of control at 2000 nM by KINOMEscan assay relative to control; set-up: scale not given: the % may be the effect or the level left
[23] = molecular target: 1-phosphatidylinositol 3-phosphate 5-kinase (Homo sapiens) (UniProt Q9Y2I7); experiment: Inhibition of human PIKFYVE assessed as percent of control at 2000 nM by KINOMEscan assay relative to control; set-up: scale not given: the % may be the effect or the level left
[24] = test system: Tyrosine-protein kinase ABL1 (Homo sapiens), P00519 [F317L]; experiment: Inhibition of phosphorylated human ABL1 F317L mutant assessed as percent of control at 2000 nM by KINOMEscan assay relative to control; set-up: scale not given: the % may be the effect or the level left
[25] = molecular target: Tyrosine-protein kinase Fer (Homo sapiens) (UniProt P16591); experiment: Inhibition of human FER assessed as percent of control at 2000 nM by KINOMEscan assay relative to control; set-up: scale not given: the % may be the effect or the level left
[26] = molecular target: Serine/threonine-protein kinase RIO2 (Homo sapiens) (UniProt Q9BVS4); details: INHIBITOR, dose 2000.0 nM
Description: Inhibition of human RIOK2 at 2000 nM by KINOMEscan assay

[27] = molecular target: Receptor tyrosine-protein kinase erbB-2 (Homo sapiens) (UniProt P04626); experiment: Inhibition of human ERBB2 assessed as percent of control at 2000 nM by KINOMEscan assay relative to control; set-up: scale not given: the % may be the effect or the level left
Chain of Receptor tyrosine-protein kinase erbB-2 (Homo sapiens) (P04626 whole entry): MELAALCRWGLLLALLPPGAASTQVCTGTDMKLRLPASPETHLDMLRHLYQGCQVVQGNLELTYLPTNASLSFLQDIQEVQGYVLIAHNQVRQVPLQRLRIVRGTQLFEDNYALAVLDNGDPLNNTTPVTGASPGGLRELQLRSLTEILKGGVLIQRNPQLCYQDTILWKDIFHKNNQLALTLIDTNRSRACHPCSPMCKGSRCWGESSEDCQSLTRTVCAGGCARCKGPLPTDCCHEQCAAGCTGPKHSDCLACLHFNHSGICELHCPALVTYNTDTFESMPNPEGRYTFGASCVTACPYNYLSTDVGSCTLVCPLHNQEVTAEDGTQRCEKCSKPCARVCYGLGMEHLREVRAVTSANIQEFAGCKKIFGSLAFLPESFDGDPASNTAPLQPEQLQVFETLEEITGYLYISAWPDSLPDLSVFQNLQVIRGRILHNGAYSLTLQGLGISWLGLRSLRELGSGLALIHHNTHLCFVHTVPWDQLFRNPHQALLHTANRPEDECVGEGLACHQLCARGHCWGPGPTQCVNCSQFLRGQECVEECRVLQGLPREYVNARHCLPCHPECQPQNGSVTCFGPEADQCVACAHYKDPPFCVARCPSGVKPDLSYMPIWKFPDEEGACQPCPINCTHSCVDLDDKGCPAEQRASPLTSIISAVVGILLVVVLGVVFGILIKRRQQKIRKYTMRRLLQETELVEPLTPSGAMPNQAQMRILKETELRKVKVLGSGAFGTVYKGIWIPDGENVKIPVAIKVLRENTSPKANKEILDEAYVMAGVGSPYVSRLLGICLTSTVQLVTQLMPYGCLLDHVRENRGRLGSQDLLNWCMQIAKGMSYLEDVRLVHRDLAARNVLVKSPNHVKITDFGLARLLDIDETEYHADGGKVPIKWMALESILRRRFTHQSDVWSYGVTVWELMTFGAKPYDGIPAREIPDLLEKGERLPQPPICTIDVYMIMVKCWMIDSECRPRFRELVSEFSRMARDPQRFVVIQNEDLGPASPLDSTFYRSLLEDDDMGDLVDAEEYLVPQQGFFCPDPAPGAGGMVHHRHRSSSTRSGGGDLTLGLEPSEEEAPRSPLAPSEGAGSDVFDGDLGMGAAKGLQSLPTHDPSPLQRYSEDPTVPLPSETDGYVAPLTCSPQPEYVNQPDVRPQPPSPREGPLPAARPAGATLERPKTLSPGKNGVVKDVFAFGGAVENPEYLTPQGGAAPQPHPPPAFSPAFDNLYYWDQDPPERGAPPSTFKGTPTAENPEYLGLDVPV

[28] = molecular target: Activated CDC42 kinase 1 (Homo sapiens) (UniProt Q07912); experiment: Inhibition of human TNK2 assessed as percent of control at 2000 nM by KINOMEscan assay relative to control; set-up: scale not given: the % may be the effect or the level left
[29] = molecular target: NUAK family SNF1-like kinase 1 (Homo sapiens) (UniProt O60285); experiment: Inhibition of human ARK5 assessed as percent of control at 2000 nM by KINOMEscan assay relative to control; set-up: scale not given: the % may be the effect or the level left
[30] = molecular target: Receptor-interacting serine/threonine-protein kinase 1 (Homo sapiens) (UniProt Q13546); experiment: Inhibition of human RIPK1 assessed as percent of control at 2000 nM by KINOMEscan assay relative to control; set-up: scale not given: the % may be the effect or the level left

CN(C)C(=O)c1ccc(N2CCCN(c3ccnc4sc(C(N)=O)c(N)c34)CC2)cc1
Activity [1]: 84% and 66%
Activity [2]: 88% and 92%
Activity [3]: 80% and 96%
Activity [4]: 89% and 78%
Activity (CWR22R): Active
Activity [5]: 95%
Activity [6]: 64%
Activity ([6]; INHIBITOR): 25%
Activity [7]: 100% and 93%
Activity [8]: 95% and 92%
Activity [9]: 93% and 86%
Activity [10]: 100% and 97%
Activity [11]: 85% and 89%
Activity [12]: 89% and 97%
Activity [13]: 95% and 100%
Activity [14]: 86% and 99%
Activity [15]: 92% and 93%
Activity [16]: 100% and 76%
Activity [17]: 95% and 100%
Activity [18]: 51% and 65%
Activity [19]: 90% and 100%
Activity [20]: 99% and 100%
Activity [21]: 84% and 94%
Activity [22]: 100% and 95%
Activity [23]: 91% and 98%
Activity [24]: 97% and 82%
Activity [25]: 99% and 100%
inhibition [26]: > 65%
Activity [27]: 100% and 89%
Activity [28]: 100%
Activity [29]: 57% and 77%
Activity [30]: 99% and 100%

— ChEMBL document CHEMBL4804286, “3-amino-4-(4-(4 (dimethylcarbamoyl) phenyl)-1,4-diazepan-1-yl) thieno [2,3-b] pyridine-2-carboxamide for use in cancer therapy and formulations comprising the same” (2020)
